In article PMC8899516, “Structure-Activity Relationship Studies of 4-((4-(2-fluorophenyl)piperazin-1-yl)methyl)-6-imino-N-(naphthalen-2-yl)-1,3,5-triazin-2-amine (FPMINT) Analogues as Inhibitors of Human Equilibrative Nucleoside Transporters” (Frontiers in Pharmacology, 2022):

Key:
ENT2 = target: T1, ENT2 (Homo sapiens, UniProt Q14542); assay: [3H]uridine uptake in PK15NTD/ENT2 cells; format: cell-based; conditions: for effect on ENT2: [3H]uridine uptake, 10 nM–100 μM analogue; for IC50: [3H]uridine 1 μM, 1 min, PK15NTD/ENT2 cells, read-out: IC50 against ENT2; for selectivity to ENT2 over ENT1: more selective to ENT2 than to ENT1, from IC50 values
T1 construct: expressed in transfected cells
T1 sequence (Q14542 1-456): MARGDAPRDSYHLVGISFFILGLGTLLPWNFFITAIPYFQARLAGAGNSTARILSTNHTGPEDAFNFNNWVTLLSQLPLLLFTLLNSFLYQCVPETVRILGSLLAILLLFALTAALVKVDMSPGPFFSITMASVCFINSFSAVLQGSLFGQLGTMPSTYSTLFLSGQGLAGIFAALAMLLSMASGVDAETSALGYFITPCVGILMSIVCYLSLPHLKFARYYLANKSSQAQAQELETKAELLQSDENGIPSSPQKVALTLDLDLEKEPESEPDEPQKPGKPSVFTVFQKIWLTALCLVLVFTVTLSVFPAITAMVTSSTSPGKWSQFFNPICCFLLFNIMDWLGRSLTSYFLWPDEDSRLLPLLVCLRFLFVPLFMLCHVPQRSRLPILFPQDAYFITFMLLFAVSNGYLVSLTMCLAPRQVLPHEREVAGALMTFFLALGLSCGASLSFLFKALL
Procedure: (§1) Nucleoside transporter-deficient porcine kidney fibroblast cells (PK15NTD) stably transfected with cloned human ENT1 or ENT2 ([Ward et al., 2000]) were used as the in vitro models. The cells were cultured in Dulbecco’s Modified Eagle’s Medium (DMEM) supplemented with 10% (v/v) foetal bovine serum, 0.5 mg/ml geneticin, 100 units/ml penicillin, 100 μg/ml streptomycin and 0.25 μg/ml of amphotericin B at 37°C in 5% CO2/95% air.
The cells were incubated with different concentrations of FPMINT analogues (from 10 nM to 100 μM) containing [^3H]uridine (2 μCi/ml, 1 μM) for 1 min. Passive uridine uptake was determined by incubating the cells in HEPES-buffered Ringer’s solution containing [^3H]uridine in the presence of 0.5 mM NBMPR. The cells were rapidly washed five times with ice-cold phosphate-buffered saline (PBS). After air-drying, the cells were solubilised by overnight incubation in 500 μl of 5% Triton-X100. Next, 300 μl of the cell lysates were mixed with 2 ml of scintillation liquid. The radioactivity of each sample was quantified by a scintillation counter. The protein content in each well was determined spectrophotometrically using a commercial bicinchoninic acid assay (Pierce Biochemicals, Rockford, IL). Uptake values were expressed as picomoles of [^3H]uridine per milligram of cellular protein per minute.
(§2) All data were analysed by GraphPad Prism software (San Diego, CA, United States). Data are expressed as mean ± standard error (SE) of three experiments performed in triplicate. The IC50 values were determined from the dose-response curves fitted with a logistic function. For the kinetic study of [^3H]uridine uptake, apparent K m and V max values were determined from the Michaelis-Menten equation, and K i was determined from the X-intercept of linear regression. Analysis of variance and Student’s t-test were performed for multiple and paired variables, respectively. p values of <0.05 were considered to be statistically significant.

ENT1 = target: T2, ENT1 (Homo sapiens, UniProt Q99808); assay: [3H]uridine uptake in PK15NTD/ENT1 cells; format: cell-based; conditions: for IC50: [3H]uridine 1 μM, 1 min, PK15NTD/ENT1 cells, read-out: IC50 against ENT1
T2 construct: expressed in transfected cells
T2 sequence (Q99808 1-456): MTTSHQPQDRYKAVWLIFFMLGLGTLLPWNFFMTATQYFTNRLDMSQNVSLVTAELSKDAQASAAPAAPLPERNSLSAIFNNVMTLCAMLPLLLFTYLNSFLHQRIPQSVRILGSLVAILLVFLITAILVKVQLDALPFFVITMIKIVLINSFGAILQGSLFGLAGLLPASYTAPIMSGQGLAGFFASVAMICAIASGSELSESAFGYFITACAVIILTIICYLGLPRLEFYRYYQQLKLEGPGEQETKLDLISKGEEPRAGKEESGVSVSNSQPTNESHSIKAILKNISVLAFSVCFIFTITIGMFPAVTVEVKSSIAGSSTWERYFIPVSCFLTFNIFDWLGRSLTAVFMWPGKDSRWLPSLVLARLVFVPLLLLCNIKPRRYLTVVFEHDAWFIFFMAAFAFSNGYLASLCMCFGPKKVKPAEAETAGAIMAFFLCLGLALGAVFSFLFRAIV
Procedure: as §1
Confluent monolayers of PK15NTD/ENT1 and PK15NTD/ENT2 cells in 24-well plates were washed thrice with HEPES-buffered Ringer’s solution containing (mM): 135 NaCl, 10 glucose, 5 KCl, 5 HEPES, 3.33 NaH2PO4, 1.0 CaCl2, 1.0 MgCl2, 0.83 Na2HPO4; pH 7.4. The cells were incubated with different concentrations of FPMINT analogues (from 10 nM to 100 μM) containing [^3H]uridine (2 μCi/ml, 1 μM) for 1 min. Passive uridine uptake was determined by incubating the cells in HEPES-buffered Ringer’s solution containing [^3H]uridine in the presence of 0.5 mM NBMPR. The cells were rapidly washed five times with ice-cold phosphate-buffered saline (PBS). After air-drying, the cells were solubilised by overnight incubation in 500 μl of 5% Triton-X100. Next, 300 μl of the cell lysates were mixed with 2 ml of scintillation liquid. The radioactivity of each sample was quantified by a scintillation counter. The protein content in each well was determined spectrophotometrically using a commercial bicinchoninic acid assay (Pierce Biochemicals, Rockford, IL). Uptake values were expressed as picomoles of [^3H]uridine per milligram of cellular protein per minute.
as §2

ENT1 and ENT2 [1] = conditions: ref Ward et al., 2000, cited from earlier work; for fold more potent in inhibiting ENT1 than in inhibiting ENT2: Playa et al., 2014
ENT1 and ENT2 [2] = system: ENT1 and ENT2; design: method as in Ward et al., 2000; conditions: substrate affinity; ref Ward et al., 2000; cited from earlier work
ENT4 = system: ENT4; design: method as in Baldwin et al., 2005; Barnes et al., 2006; conditions: ref Baldwin et al., 2005; Barnes et al., 2006; cited from earlier work
ENT3 = system: ENT3; design: method as in Baldwin et al., 2005; Barnes et al., 2006; conditions: ref Baldwin et al., 2005; Barnes et al., 2006; cited from earlier work

In the case of `Nc1nc(CN2CCN(c3ccccc3F)CC2)nc(Nc2ccccc2)n1` [Compound 1a], the “effect on ENT2” value (ENT2) is reported as “negligible effects” and the “effect on ENT1” value (ENT1; [3H]uridine uptake, 10 nM–100 μM analogue) is reported as “negligible effects”.

In the case of `COc1cc(C(=O)OCCCN2CCCN(CCCOC(=O)c3cc(OC)c(OC)c(OC)c3)CC2)cc(OC)c1OC` [dilazep], the “fold more potent in inhibiting ENT1 than in inhibiting ENT2” value (“fold more potent in inhibiting ENT1 than” below) (ENT1 and ENT2 [1]) is listed as 502 fold.

For `Nc1ncnc2c1ncn2[C@@H]1O[C@H](CO)[C@@H](O)[C@H]1O` [adenosine], the “affinity of ENT1 fold higher than that of ENT2” value (ENT1 and ENT2 [2]) is given as 2.8 fold.

For `Nc1nc(CN2CCN(c3ccccc3)CC2)nc(Nc2cccc3ccccc23)n1` [Compound 2a], the “effect on ENT2” value (ENT2) was “did not inhibit” and the IC50 (ENT1) was 105 µM.

In the case of `COc1ccc(Nc2nc(N)nc(CN3CCN(c4ccccc4F)CC3)n2)cc1` [Compound 1d], the IC50 (ENT2) is reported as 77.1 µM and the IC50 (ENT1) is reported as 0.59 µM.

For `Nc1ccn([C@@H]2O[C@H](CO)[C@@H](O)[C@H]2O)c(=O)n1` [cytidine], the “affinity of ENT1 fold higher than that of ENT2” value (ENT1 and ENT2 [2]) is listed as 7.7 fold.

For `Nc1nc2c(ncn2[C@@H]2O[C@H](CO)[C@@H](O)[C@H]2O)c(=O)[nH]1` [guanosine], the “affinity of ENT1 fold higher than that of ENT2” value (ENT1 and ENT2 [2]) is given as 19.3 fold.

In the case of `O=[N+]([O-])c1ccc(CSc2ncnc3c2ncn3[C@@H]2O[C@H](CO)[C@@H](O)[C@H]2O)cc1` [NBMPR, S-(4-nitrobenzyl)-6-thioinosine], the “sensitivity of ENT4 to inhibitor” value (ENT4) is listed as “inert”, the “fold more potent in inhibiting ENT1 than” value (ENT1 and ENT2 [1]) is listed as 7,000 fold and the “IC50 of ENT2 fold higher than that of ENT1” value (ENT1 and ENT2 [1]) is listed as 7,000 fold. The “sensitivity of ENT3 to inhibitor” value (ENT3) was “inert”.

In the case of `Cc1cn([C@H]2C[C@H](O)[C@@H](CO)O2)c(=O)[nH]c1=O` [thymidine], the “affinity of ENT1 fold higher than that of ENT2” value (ENT1 and ENT2 [2]) is listed as 2.6 fold.

In the case of `OCCN(CCO)c1nc(N2CCCCC2)c2nc(N(CCO)CCO)nc(N3CCCCC3)c2n1` [dipyridamole], the “sensitivity of ENT4 to inhibitor” value (ENT4) is listed as “inert”, the “fold more potent in inhibiting ENT1 than” value (ENT1 and ENT2 [1]) is listed as 71 fold and the “IC50 of ENT2 fold higher than that of ENT1” value (ENT1 and ENT2 [1]) is listed as 71 fold. For the same compound, the “sensitivity of ENT3 to inhibitor” value (ENT3) was “inert”.

In the case of `Nc1nc(CN2CCN(c3cccc(Cl)c3)CC2)nc(Nc2cccc3ccccc23)n1` [Compound 2b], the IC50 (ENT2) is reported as 2.95 µM, the “selectivity to ENT2 over ENT1” value (ENT2) is reported as 4.29 fold and the IC50 (ENT1) is reported as 12.7 µM.

With `Nc1nc(CN2CCN(c3ccccc3F)CC2)nc(Nc2cccc(Cl)c2)n1` [Compound 1b] the “effect on ENT2” value (ENT2) was “no effect” and the IC50 (ENT1) was 1.82 µM.

With `CCc1ccc(Nc2nc(N)nc(CN3CCN(c4ccccc4F)CC3)n2)cc1` [Compound 1c] the IC50 (ENT2) was 36.8 µM, the “selectivity to ENT2 over ENT1” value (ENT2) was 4.647 fold and the IC50 (ENT1) was 171 µM.

In the case of `Nc1nc(CN2CCN(c3ccc(F)cc3)CC2)nc(Nc2cccc(Cl)c2)n1` [Compound 3b], the “effect on ENT2” value (ENT2) is reported as “did not inhibit” and the IC50 (ENT1) is reported as 1.65 µM.
